Patent US12077503B2, “Substituted cyclic amides and their use as herbicides” (FMC CORPORATION, priority 2015, dated 2024)

Key:
Assay type in all cases: in vivo
[1] = test system: sedge, umbrella (small-flower umbrella sedge, Cyperus difformis); assay: Test B flooded paddy test; settings: Cyperus difformis, 250 g ai/ha, Flood; 0 to 100 scale where 0 is no effect and 100 is complete control; read-out: Sedge, Umbrella plant response rating
How it was run: (§1)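 Greenhouse paddy pots with 2-leaf stage plants received compound by direct addition to floodwater 3 cm deep, kept at that level. Scored visually at 13–15 d versus controls (0 no effect; 100 complete control).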

rice (Oryra sativa) = assay: Test B flooded paddy test; settings: Oryza sativa, 250 g ai/ha, Flood; 0 to 100 scale where 0 is no effect and 100 is complete control; read-out: Rice plant response rating
How it was run: as §1

[2] = test system: barnyardgrass (Echinochloa crus-galli); assay: Test B flooded paddy test; settings: Echinochloa crus-galli, 250 g ai/ha, Flood; 0 to 100 scale where 0 is no effect and 100 is complete control; read-out: Barnyardgrass plant response rating
How it was run: as §1

[3] = test system: ducksalad (Heteranthera limosa); assay: Test B flooded paddy test; settings: Heteranthera limosa, 250 g ai/ha, Flood; 0 to 100 scale where 0 is no effect and 100 is complete control; read-out: Ducksalad plant response rating
How it was run: as §1

Kochia (Kochia scoparia) [4] = assay: Test A preemergence; settings: Bassia scoparia, pre-emergence, 240 h, Preemergence
How it was run: (§2)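 Compounds were formulated in a non-phytotoxic solvent mixture with surfactant and applied as a preemergence directed soil spray after seeding, or sprayed postemergence over plants 2 to 10 cm tall at the one- to two-leaf stage. Evaluation after about 10 d compared treated with untreated controls, using a scale from 0 (no effect) to 100 (complete control).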

[5] = test system: giant foxtail (Setaria faberii); assay: Test A preemergence; settings: Setaria faberi, pre-emergence, 240 h, Preemergence
How it was run: as §2

[6] = test system: ryegrass, Italian (Italian ryegrass, Lolium multiflorum); assay: Test A preemergence; settings: Lolium multiflorum, pre-emergence, 240 h, Preemergence
How it was run: as §2

[7] = test system: ragweed (common ragweed, Ambrosia elatior); assay: Test A preemergence; settings: Ambrosia artemisiifolia, pre-emergence, 240 h, Preemergence
How it was run: as §2

[8] = test system: pigweed (Amaranthus retroflexus); assay: Test A preemergence; settings: Amaranthus retroflexus, pre-emergence, 240 h, Preemergence
[9] = test system: barnyardgrass (Echinochloa crus-galli); assay: Test A preemergence; settings: Echinochloa crus-galli, pre-emergence, 240 h, Preemergence
How it was run: as §2

Kochia (Kochia scoparia) [10] = assay: Test A postemergence; settings: Bassia scoparia, post-emergence, 240 h, Postemergence, read-out: Plant response rating, Kochia
How it was run: as §2

corn (Zea mays) = assay: Test A postemergence; settings: Zea mays, post-emergence, 240 h, Postemergence
How it was run: as §2

[11] = test system: giant foxtail (Setaria faberii); assay: Test A postemergence; settings: Setaria faberi, post-emergence, 240 h, Postemergence, read-out: Plant response rating, Foxtail, Giant
How it was run: as §2

[12] = test system: ryegrass, Italian (Italian ryegrass, Lolium multiflorum); assay: Test A postemergence; settings: Lolium multiflorum, post-emergence, 240 h, Postemergence, read-out: Plant response rating, Ryegrass, Italian
How it was run: as §2

[13] = test system: ragweed (common ragweed, Ambrosia elatior); assay: Test A postemergence; settings: Ambrosia artemisiifolia, post-emergence, 240 h, Postemergence, read-out: Plant response rating, Ragweed
How it was run: as §2

[14] = test system: pigweed (Amaranthus retroflexus); assay: Test A postemergence; settings: Amaranthus retroflexus, post-emergence, 240 h, Postemergence, read-out: Plant response rating, Pigweed
How it was run: as §2

[15] = test system: blackgrass (Alopecurus myosuroides); assay: Test A postemergence; settings: Alopecurus myosuroides, post-emergence, 240 h, Postemergence, read-out: Plant response rating, Blackgrass
How it was run: as §2

[16] = test system: wheat (Triticum aestivum); assay: Test A postemergence; settings: Triticum aestivum, post-emergence, 240 h, Postemergence, read-out: Plant response rating, Wheat
How it was run: as §2

[17] = test system: barnyardgrass (Echinochloa crus-galli); assay: Test A postemergence; settings: Echinochloa crus-galli, post-emergence, 240 h, Postemergence, read-out: Plant response rating, Barnyardgrass
How it was run: as §2

[18] = test system: Galium (catchweed bedstraw, Galium aparine); assay: Test A postemergence; settings: Galium, post-emergence, 240 h, Postemergence, read-out: Plant response rating, Galium
How it was run: as §2

[19] = 125 g ai/ha, visual injury after approximately 10 d, 0 to 100 scale where 0 is no effect and 100 is complete control
[20] = 31 g ai/ha, visual injury after approx. 10 d, 0 to 100 scale, 0 no effect, 100 complete control

CN1CC[C@H](c2ccccc2C(F)(F)F)[C@@H](C(=O)Nc2ccc(F)c(F)c2F)C1=O [Compound 1010]
0%: pest or weed control at 250 g/ha [1] | pest or weed control at 250 g/ha (rice (Oryra sativa)) | pest or weed control at 250 g/ha [2] | pest or weed control at 250 g/ha [3] | pest or weed control at 31 g/ha (Kochia (Kochia scoparia) [4]; 31 g ai/ha, 0 to 100 scale where 0 is no effect and 100 is complete control, read-out: Kochia plant response rating) | pest or weed control at 125 g/ha (Kochia (Kochia scoparia) [4]; 125 g ai/ha, visual injury rating after approximately 10 d, read-out: Kochia plant response rating (0 to 100 scale, 0 is no effect, 100 is complete control)) | pest or weed control at 125 g/ha ([5]; 125 g ai/ha, visual injury rating after approximately 10 d, read-out: Foxtail, Giant plant response rating (0 to 100 scale, 0 is no effect, 100 is complete control)) | pest or weed control at 31 g/ha ([5]; 31 g ai/ha, 0 to 100 scale (0 no effect, 100 complete control), read-out: Plant response rating, Foxtail, Giant) | pest or weed control at 31 g/ha ([6]; 31 g ai/ha, 0 to 100 scale where 0 is no effect and 100 is complete control, read-out: Ryegrass, Italian plant response rating) | pest or weed control at 125 g/ha ([6]; 125 g ai/ha, visual injury rating after approximately 10 d, read-out: Ryegrass, Italian plant response rating (0 to 100 scale, 0 is no effect, 100 is complete control)) | pest or weed control at 31 g/ha ([7]; 31 g ai/ha, 0 to 100 scale where 0 is no effect and 100 is complete control, read-out: Ragweed plant response rating) | pest or weed control at 125 g/ha ([7]; 125 g ai/ha, visual injury rating after approximately 10 d, read-out: Ragweed plant response rating (0 to 100 scale, 0 is no effect, 100 is complete control)) | pest or weed control at 31 g/ha ([8]; 31 g ai/ha, 0 to 100 scale where 0 is no effect and 100 is complete control, read-out: Pigweed plant response rating) | pest or weed control at 125 g/ha ([8]; 125 g ai/ha, visual injury rating after approximately 10 d, read-out: Pigweed plant response rating (0 to 100 scale, 0 is no effect, 100 is complete control)) | pest or weed control at 125 g/ha ([9]; 125 g ai/ha, visual injury rating after approximately 10 d, read-out: Barnyardgrass plant response rating (0 to 100 scale, 0 is no effect, 100 is complete control)) | pest or weed control at 31 g/ha ([9]; 31 g ai/ha, 0 to 100 scale (0 no effect, 100 complete control), read-out: Plant response rating, Barnyardgrass) | pest or weed control at 125 g/ha (Kochia (Kochia scoparia) [10]; [19]) | pest or weed control at 31 g/ha (Kochia (Kochia scoparia) [10]; [20]) | Corn plant response rating (crop injury, 0 = no effect, 100 = complete kill) at 125 g/ha (corn (Zea mays); [19]) | Corn plant response rating (crop injury, 0 = no effect, 100 = complete kill) at 31 g/ha (corn (Zea mays); [20]) | pest or weed control at 125 g/ha [11, 19] | pest or weed control at 31 g/ha [11, 20] | pest or weed control at 125 g/ha [12, 19] | pest or weed control at 31 g/ha [12, 20] | pest or weed control at 125 g/ha [13, 19] | pest or weed control at 31 g/ha [13, 20] | pest or weed control at 125 g/ha [14, 19] | pest or weed control at 31 g/ha [14, 20] | pest or weed control at 125 g/ha [15, 19] | pest or weed control at 31 g/ha [15, 20] | plant injury at 125 g/ha [16, 19] | plant injury at 31 g/ha [16, 20] | pest or weed control at 125 g/ha [17, 19] | pest or weed control at 31 g/ha [17, 20] | pest or weed control at 125 g/ha [18, 19] | pest or weed control at 31 g/ha [18, 20]
